“Also recorded” adds a separate entry of the source.
Experiments:
[1] = tested on: RAW 264.7 murine immortalized macrophages; experiment: iNOS expression by immunocytochemistry (ICC), normalized to nuclei count; type: cell-based; conditions: for sensitivity of iNOS response, IFN-γ versus TNF-α as second pro-inflammatory stimulus: FIG. 9
Experimental: (§1) All studies in this work were performed using RAW 264.7 murine immortalized macrophages (ATCC TIB-71™). Macrophages were expanded, maintained, and cultured in basal macrophage medium, which is comprised of DMEM (Thermo Fisher Scientific; Ser. No. 12/430,062), 10% FBS (Thermo Fisher Scientific; 26140079), and 1% antibiotic/antimycotic (Sigma-Aldrich; A5955).
(§2) Raw 264.7 macrophages were cultured to 70% confluence before conditioning began. Cells were conditioned by addition of medium with lipopolysaccharide (LPS; Sigma-Aldrich; L2880), interferon gamma (IFN-γ; R&D Systems; 485-MI), or interleukin (IL)-4 (PeproTech; 214-14) as indicated.
(§3) Raw 264.7 macrophages were conditioned with LPS or IFN-γ alone to quantify individual stimulus dynamic response, with LPS or IFN-γ sequentially to recover iNOS expression via orthogonal input, or with LPS […] to quantify supra-additivity and model predictive control strategy response. Pre-treatment, 24 hours of IL-4 prior to addition of LPS or IFN-γ, was used to induce an anti-inflammatory, non-nave state for experiments involving hysteretic effects.
For immunocytochemistry (ICC) experiments, macrophages were cultured in 96-well microplates. Macrophages were fixed in 4% PFA solution for 15 minutes and blocked with 5% BSA+3% goat serum in PBS for one hour. Cells were stained with α-iNOS antibody (Cell Signaling Technology; Cat. No. 13120; 1:400) and DAPI for normalization to nuclei count. Cells were imaged at 10× magnification (Zeiss Observer Z1). Image fluorescence was thresholded and total fluorescence above the threshold was normalized to nuclei number.
(§4) ICC and Western blot data were aggregated and iNOS expression for each independent experiment was normalized to the positive control with Raw264.7 cells treated with 1 μg/mL LPS for 24 hours (dynoDataLoad.m). iNOS dynamics plots were generated using the Gramm package for MATlAB. Data at sampled time points (0, 24 48, and 72 hours) were expressed as mean±SEM for separated data (N=38 for LPS single input experiments; N=8 for LPS repeated input experiments; N=8 for LPS cycled input experiments; N=32 for IFN-γ single input experiments; N=16 for IFN-γ repeated input experiments; N=16 for IFN-γ cycled input experiments). To generate interpolation curves data were smoothed using the Savitzky-Golay (sgolay) option in the curve fitting toolbox. Shaded band on curve represents root mean squared (RMS) cross validation error on smoothed data (macrophageDyn_figGenv3.m).

[2] = tested on: RAW 264.7 murine immortalized macrophages; experiment: iNOS expression by quantitative Western blot, normalized to α-tubulin; type: cell-based
Experimental: as §1, §2
For Western blot experiments, cells were cultured in 6-well plates then lysed using RIPA buffer with PMSF (Sigma-Aldrich), and cOmplete Mini (Sigma-Aldrich). Membranes were probed for α-tubulin (Sigma-Aldrich, Cat. No. T6074; 1:4000) and iNOS (1:1000). Membranes were imaged on a LiCor Odyssey CLx machine and quantified in ImageStudio Lite. iNOS band intensity was normalized to α-tubulin intensity to yield iNOS expression.
as §4

Raw264.7 cells = experiment: Arg1 expression for M2 polarization validation; type: cell-based, murine; conditions: IL-4 pre-conditioning, FIG. 11
Experimental: as §3
To model Raw264.7 cells starting in a non-nave state, the inventors pre-conditioned macrophages with IL-4 for 24 hours prior to pro-inflammatory stimulation. […] Reference source not found. For each LPS concentration, iNOS expression for non-M2 polarized LPS-only treated cells were divided by iNOS expression values from cell treated with an array of IL-4 concentrations for 24 hours followed by 24 hours of LPS. The matrix of LPS and IL-4 concentrations was interpolated using 3rd order linear least squares, which provided the inverse of the continuous input concentration-dependent attenuation factor γ. […] The M2 driven attenuation of M1 response reflects the systemic immunosuppression that poses a major risk to post-traumatic or surgical injury patients.

[3] = physiologically relevant concentration range

TNF-α was tested, and the “sensitivity of iNOS response, IFN-γ versus TNF-α as second pro-inflammatory stimulus” value [1, 3] was “more sensitive to IFN-γ”.

lipopolysaccharide [LPS] was tested, and the “duration of iNOS level” value ([1]; LQG controller input: 24 hours of 20 ng/ml, then 48 hours at 1 μg/ml LPS) was “sustained this iNOS level through 48 hours, but not through 72 hours”, the “iNOS expression level, of the reference” value ([1]; LQG controller input: 24 hours of 20 ng/ml, then 48 hours at 1 μg/ml LPS, read at 24 hours) was 60% and the “iNOS expression, peak, of normalized max iNOS” value ([1]; PI controller input: 40 ng/ml LPS for 24 hours, then 1 μg/ml until 72 hours, read at 24 hours, max = 24 hour level given 1 μg/ml LPS) was “approximately 70%”. The “iNOS expression, of max” value ([1]; PI controller input: 40 ng/ml LPS for 24 hours, then 1 μg/ml, read at 48 hours) was 50 % max, the “iNOS response above the high LPS concentration” value ([1]; above 1 μg/ml LPS) was “response tapered off” and the “iNOS expression at 72 hours” value ([1]; combined PI and LQG three-step LPS input strategy) was “did not keep activation high at 72 hours”. The “iNOS expression dynamics on repeated or cycled LPS stimulation” value ([1]; multiple administrations of LPS, or 24 hours in control media before LPS re-stimulation) was “did not alter iNOS expression dynamics; also recorded: not modulated”, the “LPS dose-to-iNOS response relationship” value ([1]; physiologically relevant concentration range, up to 1 μg/ml LPS) was “monotonic” and the “time of peak in iNOS expression” value ([2]; single administration of 1 μg/ml LPS) was 24 h. For the same molecule, the “decay of iNOS expression to baseline after the peak” value ([2]; single administration of 1 μg/ml LPS, LPS not removed) was 48 h.

B1: interleukin (IL)-4 (protein, UniProt P07750 21-140, looked up)
Interleukin-4: HIHGCDKNHLREIIGILNEVTGEGTPCTEMDVPNVLTATKNTTESELVCRASKVLRIFYLKHGKTPCLKKNSSVLMELQRLFRAFRCLDSSISCTMNESKSTSLKDFLESLKSIMQMDYS
notes: interleukin-4 (PeproTech; 214-14), used to induce an anti-inflammatory, non-naive state
In the case of B1, the “iNOS expression after IL-4 pre-conditioning” value ([1]; IL-4 for 24 hours, then 24 hr of LPS) is reported as “attenuated expression of iNOS”, the iNOS protein expression ([2]; IL-4 treatment, FIG. 8, n=2) is reported as “not expressed” and the Arg1 expression (Raw264.7 cells) is reported as “increased expression of Arg1”.

B2: interferon gamma (protein, UniProt P01580 23-155, looked up)
Interferon gamma: HGTVIESLESLNNYFNSSGIDVEEKSLFLDIWRNWQKDGDMKILQSQIISFYLRLFEVLKDNQAISNNISVIESHLITTFFSNSKAKKDAFMSIAKFEVNNPQVQRQAFNELIRVVHQLLPESSLRKRKRSRC
notes: interferon gamma (R&D Systems; 485-MI), second orthogonal pro-inflammatory input
B2 was tested, and the “temporal iNOS response to IFN-γ alone” value ([1]; 100 ng/ml IFN-γ alone, FIG. 10) was “not sustained”, the “iNOS levels after prior LPS input” value ([1]; 24 hrs of LPS, then IFN-γ delayed or immediately after, FIGS. 4B-4C) was “robustly increased iNOS levels” and the “effect on LPS-induced iNOS expression (supra-additivity)” value ([1]; IFN-γ with LPS, concomitantly or in series, through 72 hours) was “amplifies LPS-induced iNOS expression”. The “iNOS expression in IL-4 pre-treated cells, IFN-γ with LPS versus LPS alone” value ([1]; lower LPS and higher IL-4 concentrations, FIG. 5B-5C) was “greater iNOS expression was observed” and the “sensitivity of iNOS response, IFN-γ versus TNF-α as second pro-inflammatory stimulus” value [1, 3] was “more sensitive to IFN-γ”.

— patent US20210343422A1, “METHODS FOR DYNAMIC MODELING AND CLOSED-LOOP CONTROL OF INFLAMMATION” (Georgia Tech Research Corporation, priority 2018, published 2021)
